Reference: publication PMC7834599 (Bioorganic & Medicinal Chemistry Letters, 2020)

Tests used:
NLRP3 inflammasome = NLRP3 inflammasome (Homo sapiens, UniProt Q96P20); assay: IL-1β release assay, NLRP3 inflammasome activation in THP-1 cells; type: cell-based
TNF-α = TNF-α release in LPS-ATP treated THP-1 cells; type: cell-based, Human
AIM2 inflammasome = molecular target: T1, AIM2 inflammasome (Homo sapiens, UniProt O14862); assay: Poly; type: cell-based; details: THP-1 cells, Poly (dA:dT)
T1 sequence (O14862 1-343): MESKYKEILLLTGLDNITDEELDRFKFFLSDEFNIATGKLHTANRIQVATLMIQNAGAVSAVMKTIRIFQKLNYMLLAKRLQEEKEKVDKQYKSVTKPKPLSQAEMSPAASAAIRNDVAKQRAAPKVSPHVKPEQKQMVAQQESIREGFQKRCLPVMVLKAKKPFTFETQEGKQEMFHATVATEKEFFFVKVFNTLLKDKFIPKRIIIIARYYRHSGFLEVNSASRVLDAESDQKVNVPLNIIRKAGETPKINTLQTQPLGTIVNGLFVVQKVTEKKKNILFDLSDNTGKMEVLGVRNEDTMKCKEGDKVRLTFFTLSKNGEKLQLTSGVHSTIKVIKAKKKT

ASC = ASC oligomerization assay in THP-1 cells; type: cell-based, Human; details: LPS-ATP NLRP3 activated THP-1 cells, western blot
CYP2C8 = molecular target: T2, CYP2C8 (Homo sapiens, UniProt P10632); assay: CYP inhibition in human liver microsomes; type: in vitro ADME
T2 sequence (P10632 1-490): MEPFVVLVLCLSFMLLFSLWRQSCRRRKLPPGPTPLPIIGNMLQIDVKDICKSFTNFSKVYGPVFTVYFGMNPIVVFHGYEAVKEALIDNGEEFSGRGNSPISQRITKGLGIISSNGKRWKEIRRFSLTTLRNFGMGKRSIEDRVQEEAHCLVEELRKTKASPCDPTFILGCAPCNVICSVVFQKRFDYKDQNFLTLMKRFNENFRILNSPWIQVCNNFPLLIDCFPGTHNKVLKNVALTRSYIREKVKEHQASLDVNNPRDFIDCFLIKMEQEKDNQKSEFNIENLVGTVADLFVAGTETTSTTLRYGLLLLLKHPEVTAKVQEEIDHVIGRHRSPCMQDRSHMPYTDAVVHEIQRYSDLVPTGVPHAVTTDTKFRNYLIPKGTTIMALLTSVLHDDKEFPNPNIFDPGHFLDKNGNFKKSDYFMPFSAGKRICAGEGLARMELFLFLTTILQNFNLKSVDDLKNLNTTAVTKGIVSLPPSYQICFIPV

CYP2C9 = CYP2C9 (Homo sapiens, UniProt P11712); assay: CYP inhibition in human liver microsomes; type: in vitro ADME
Sequence of CYP2C9 (P11712 whole entry): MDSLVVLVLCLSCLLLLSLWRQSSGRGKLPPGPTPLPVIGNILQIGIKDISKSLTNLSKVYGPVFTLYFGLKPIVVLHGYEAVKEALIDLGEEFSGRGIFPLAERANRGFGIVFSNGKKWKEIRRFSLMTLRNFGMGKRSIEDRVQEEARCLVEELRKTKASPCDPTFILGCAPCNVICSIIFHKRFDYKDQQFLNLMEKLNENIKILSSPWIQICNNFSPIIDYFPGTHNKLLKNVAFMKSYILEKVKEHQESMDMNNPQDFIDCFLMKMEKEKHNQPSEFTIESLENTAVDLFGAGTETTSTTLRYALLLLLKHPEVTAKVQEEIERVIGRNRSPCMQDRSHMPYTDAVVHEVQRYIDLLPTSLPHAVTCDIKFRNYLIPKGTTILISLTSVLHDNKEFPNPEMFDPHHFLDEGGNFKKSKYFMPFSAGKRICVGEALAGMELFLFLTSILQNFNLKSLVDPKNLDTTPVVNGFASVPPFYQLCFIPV

Sequence of NLRP3 inflammasome (Q96P20 whole entry): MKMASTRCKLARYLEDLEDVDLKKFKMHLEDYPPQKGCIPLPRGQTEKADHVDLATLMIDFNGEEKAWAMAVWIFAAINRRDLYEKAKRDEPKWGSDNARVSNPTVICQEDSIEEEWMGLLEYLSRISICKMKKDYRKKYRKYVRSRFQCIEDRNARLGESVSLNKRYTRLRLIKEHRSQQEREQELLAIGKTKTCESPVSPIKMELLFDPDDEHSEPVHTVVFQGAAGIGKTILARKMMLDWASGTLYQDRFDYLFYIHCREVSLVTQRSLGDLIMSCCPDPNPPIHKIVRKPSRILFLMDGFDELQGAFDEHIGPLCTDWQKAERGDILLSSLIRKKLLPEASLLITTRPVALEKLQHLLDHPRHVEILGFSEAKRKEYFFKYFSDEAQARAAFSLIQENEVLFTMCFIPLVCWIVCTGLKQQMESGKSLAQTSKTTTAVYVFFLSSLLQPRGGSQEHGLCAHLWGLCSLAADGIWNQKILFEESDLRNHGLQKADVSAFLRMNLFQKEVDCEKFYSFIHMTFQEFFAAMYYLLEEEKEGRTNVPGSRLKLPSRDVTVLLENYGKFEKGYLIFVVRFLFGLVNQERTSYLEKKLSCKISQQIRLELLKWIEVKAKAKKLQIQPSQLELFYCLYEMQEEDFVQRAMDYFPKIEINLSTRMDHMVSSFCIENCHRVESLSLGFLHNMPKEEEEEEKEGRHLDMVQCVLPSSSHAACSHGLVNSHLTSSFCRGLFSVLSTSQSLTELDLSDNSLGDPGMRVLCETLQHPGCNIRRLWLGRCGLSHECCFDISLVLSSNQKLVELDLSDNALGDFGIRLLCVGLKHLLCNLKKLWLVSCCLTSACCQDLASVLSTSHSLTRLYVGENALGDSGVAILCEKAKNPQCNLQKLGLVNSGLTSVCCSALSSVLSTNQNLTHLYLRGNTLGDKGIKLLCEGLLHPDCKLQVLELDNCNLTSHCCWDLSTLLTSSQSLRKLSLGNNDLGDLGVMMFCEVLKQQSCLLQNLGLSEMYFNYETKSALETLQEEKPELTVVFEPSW

Row | SMILES | IC50 (NLRP3 inflammasome) [µM] | inhibition at 1 µM (NLRP3 inflammasome; THP-1, read-out: inhibition of secreted IL-1β) [%] | IC50 (TNF-α; Homo sapiens, THP-1, read-out: TNF-α IC50) [µM] | inhibition of secreted TNF-α (in words) (TNF-α; THP-1 cells, LPS-ATP, up to high concentration) | inhibition of secreted IL-1β in AIM2 inflammasome activation (in words) (AIM2 inflammasome) | ASC oligomerization (in words) (ASC) | CYP2C8 inhibition (in words) (CYP2C8) | CYP2C9 inhibition (in words) (CYP2C9)
1 | O=C(NS(=O)(=O)/C=C/c1nccs1)c1c2c(cc3c1OCC3)OCC2 [Compound 20] | > 1 | < 50 |  |  |  |  |  | 
2 | O=C(Nc1c2c(cc3c1CCC3)CCC2)NS(=O)(=O)/C=C/c1nccs1 [Compound 7, (E)-N-((1,2,3,5,6,7-hexahydro-s-indacen-4-yl)carbamoyl)-2-(thiazol-2-yl)ethene-1-sulfonamide] |  |  | > 10 | not affected | no effect | blocked the oligomerisation of ASC | inhibit | inhibit
